Assay results reported in PubChem BioAssay AID179 (DTP/NCI, 2004).
Calls of active or inactive are those of the source.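 The calls were made as follows: active = compounds giving half or more protection of infected cells from virus-caused growth loss, again on retest; inactive = the rest.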

System: CEM cells HIV-1 protection, formazan growth assay
Assay: NCI AIDS Antiviral Assay
Details: for IC50: measured here: growth of uninfected CEM cells
Outline: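 Human CEM cells, uninfected and HIV-1-infected, received five drug concentrations, and growth was read by soluble formazan assay. Compounds giving at least 50% protection were retested; reproducible 100% protection defined confirmed active.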

CN(C(=O)C12C3(C(=O)O)C4C5(C(=O)O)C3C1(C(=O)O)C5C42C(=O)O)C(C)(C)C (stereo not given) showed an EC50 of over 200 µM and an IC50 of over 200 µM.

O=C(O)CCC(=O)Nc1ccccc1 gave an EC50 of over 200 µM and an IC50 of over 200 µM.

NC(=S)N/N=C1\CCCC\C1=C/c1ccccc1 was tested, and the EC50 was over 138 µM and the IC50 was 112 µM.

COc1cc2cc3c4cc(OC)c(OC)cc4cc[n+]3c(C)c2cc1OC (tested in a mixture with another compound) was tested, and the EC50 was over 93.3 µM and the IC50 was 4.17 µM.

CN1CCN(C(=O)c2cccc3cccc(C(=O)O)c23)CC1 showed an EC50 of over 832 µM and an IC50 of 724 µM.

CC1=NN(c2ccccc2)C(=O)C1N=Nc1ccc(S(=O)(=O)Nc2occ(C)c2C)cc1 (stereo not given) was tested, and the outcome was “inactive”.

CC1=C(O)C(=O)C=C2C1=CC=C1[C@@]2(C)CC[C@@]2(C)C3C[C@@H](C)C(=O)[C@@H](O)[C@]3(C)CC[C@]12C (stereo not given in full) gave an EC50 of over 1.26 µM and an IC50 of 0.2 µM.

S=C(NCc1ccccc1-c1ccccc1)Nc1ccc(Br)cn1 gave an EC50 of over 2 µM and an IC50 of 0.38 µM.

Compound COc1ccc(/C=C(\C#N)c2ccc([N+](=O)[O-])cc2)cc1OC has an EC50 of 102 µM and an IC50 of 759 µM.

With NC(CSS(=O)(=O)O)=NCCCCc1ccccc1 the EC50 was over 200 µM and the IC50 was 107 µM.

CC(=O)Nc1cccc(N2C(=O)/C(=C\c3cccc(Oc4ccccc4)c3)SC2c2ccccc2)c1 (stereo not given) gave an EC50 of over 200 µM and an IC50 of 30.9 µM.

In the case of CSc1nc(-c2ccccc2)c(C#N)c(=O)[nH]1, the outcome is reported as “inactive”.

NC(=O)CNC(=O)c1ccccc1SC(=O)OCCBr was tested, and the EC50 was 7.08 µM and the IC50 was over 200 µM.

O/C(=C\c1nc2ccccc2nc1/C=C(\O)c1ccc(Cl)cc1)c1ccccc1 was tested, and the EC50 was over 200 µM and the IC50 was 6.46 µM.

CNC(=S)N/N=C(\C)c1ccc(OC)cc1O showed an EC50 of over 200 µM and an IC50 of 13.8 µM.

Compound COc1ccc(NC(=O)CSc2nnc(Cc3ccccc3)o2)cc1 has an EC50 of over 100 µM and an IC50 of 23.4 µM.

In the case of NC(N)=NS(=O)(=O)c1ccc(Nc2c3ccccc3nc3c(C(=O)NCCO)cccc23)cc1, the EC50 is reported as over 200 µM and the IC50 is reported as 8.91 µM.

For O=C1c2ccccc2-c2c1c1ccccc1c(=O)n2-c1ccccc1, the EC50 was over 30.9 µM and the IC50 was over 30.9 µM.

COc1ccc(CCC2c3cc(OC)c(OC)cc3CCN2C)cc1OC (stereo not given) was tested, and the EC50 was over 676 µM and the IC50 was 240 µM.

For COc1ccc(NC(=O)CC(=O)N2N=C(N(CCC#N)c3cccc(C)c3)CC2c2ccccc2)cc1 (stereo not given), the EC50 was over 100 µM and the IC50 was over 100 µM.

With CC(=O)NC(CCCOC(C)=O)C(=O)NC(CCCOC(C)=O)C(=O)NC(CCCOC(C)=O)C(=O)NC(Cc1ccc([N+](=O)[O-])cc1)C(=O)NCC(=O)OCc1ccccc1 (stereo not given) the EC50 was over 200 µM and the IC50 was over 200 µM.

In the case of CC12CCC3c4ccc(OS(=O)(=O)O)cc4CCC3C1CC(O)C2O (stereo not given), the outcome is reported as “inactive”.

With CC1(C)OCC(C2OC3OC(C)(C)OC3C2c2ccccc2)O1 (stereo not given) the EC50 was over 200 µM and the IC50 was over 200 µM.

Compound CC(O)C1(CNc2cc(Cl)nc(N)n2)CCC1 (stereo not given) has an EC50 of over 200 µM and an IC50 of 182 µM.

With COC1OC2=CCC3C(=O)N(c4ccccc4)C(=O)C3C2[C@H](OCc2ccccc2)C1OCc1ccccc1 (stereo not given in full) the outcome was “inactive”.

With S=C(/N=N/c1[nH]c2ccccc2c1NNC(=S)NC12CC3CC(CC(C3)C1)C2)NC12CC3CC(CC(C3)C1)C2 the outcome was “inactive”.

O=C(CSc1nc(-c2ccccc2)c(-c2ccccc2)[nH]1)N/N=C/c1ccc([N+](=O)[O-])cc1 was tested, and the EC50 was over 21.9 µM and the IC50 was 10 µM.

With COc1ccc2c(C)cc(=O)oc2c1OC the EC50 was over 200 µM and the IC50 was over 200 µM.

Clc1ccc(/C=C/c2nc3ccccc3s2)cc1Cl showed an EC50 of over 200 µM and an IC50 of 83.2 µM.

NC1=NC(c2ccccc2)C2=C(N1)C(=O)N(Cc1ccccc1)C2 (stereo not given) showed an EC50 of over 204 µM and an IC50 of 72.4 µM.

With CN1/C(=C\N=O)C(C)(C)N(O)C1(C)C the EC50 was over 200 µM and the IC50 was over 200 µM.

In the case of Cc1ccc(NC(=S)SCCC(=O)O)cc1, the outcome is reported as “inactive”.

COC(=O)[C@H](Cc1ccccc1)NP(=O)(O)OCC1OC(n2cc(C)c(=O)[nH]c2=O)CC1N=[N+]=[N-] (stereo not given in full) showed an EC50 of 0.0251 µM and an IC50 of 10 µM.

Work on CCOP(=O)(OCC)/C(C#N)=C/c1ccoc1 yielded an EC50 of over 977 µM and an IC50 of over 977 µM.

O=C(NCCNCCCNC(=O)c1cc(-c2ccccc2)nc2ccccc12)c1cccc(OCc2ccccc2)c1OCc1ccccc1 showed an EC50 of over 200 µM and an IC50 of 1.1 µM.

O=[N+]([O-])c1ccc(/C=N/Nc2nnc3c4ccccc4c4ncccc4c3n2)o1 was tested, and the EC50 was over 100 µM and the IC50 was over 100 µM.

In the case of O=C1C(c2ccccc2)=[N+]([O-])c2cc([N+](=O)[O-])ccc21, the outcome is reported as “inactive”.

With CC(N)CNCCCNCCNCCCNCO (stereo not given) the EC50 was over 100 µM and the IC50 was over 100 µM.

In the case of CC[C@@H](C)[C@H](NC(=O)[C@H](CCCCN)NC(=O)[C@H](CCCCN)NC(=O)[C@H](CC(C)C)NC(=O)[C@@H]1CCCN1C(=O)[C@@H]1CCCN1C(=O)[C@@H](NC(=O)[C@H](CC(C)C)NC(=O)[C@H](CCCCN)NC(=O)[C@H](CCCN=C(N)N)NC(=O)[C@@H](N)C(C)C)[C@@H](C)O)C(=O)O, the outcome is reported as “inactive”.

With O=C1/C(=C\c2cccc(Oc3ccccc3)c2)S(=O)(=O)C(c2ccccc2)N1c1cc(Cl)ccc1Cl (stereo not given) the EC50 was over 200 µM and the IC50 was 3.31 µM.

For Cc1ccc(Nc2nc3[nH]ccc3c(=O)[nH]2)cc1, the EC50 was over 200 µM and the IC50 was over 200 µM.

O=C(c1nc2ccc(Cl)cc2[nH]c1=O)C(O)c1cccc([N+](=O)[O-])c1 (stereo not given) gave an EC50 of over 186 µM and an IC50 of 12 µM.

CCCCCCc1cc2c(O)c(C(c3ccccc3)c3c(O)c4cc(CCCCCC)c(O)cc4oc3=O)c(=O)oc2cc1O was tested, and the EC50 was over 200 µM and the IC50 was 5.62 µM.

Compound c1ccc([P+](Cc2csnn2)(c2ccccc2)c2ccccc2)cc1 has an EC50 of over 331 µM and an IC50 of 174 µM.
